Results from PubChem BioAssay AID220 (DTP/NCI, 2004).
Where “and” joins values, the source holds several entries; their conditions need not be identical. Identical values can stand only once. Inconclusive results are not listed.

System: CD8F1 mice, subcutaneous mammary adenocarcinoma, T/C%
Assay: NCI In Vivo Anticancer Drug Screen. Data for tumor model Mammary Adenocarcinoma CD8F1 (subcutaneous) in CD8F1
Details: higher = larger tumour
Summary of the method: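 Antitumor activity is assessed in transplantable-tumor mice by comparing the treated group with a vehicle-treated control group. Survival or tumor size serves as the measure, reported as T divided by C.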

[1] = endpoint: median tumor weight change, dose: 125.0 mg/kg/injection, schedule: Q01DX001 (ip), vehicle: saline
[2] = endpoint: median tumor weight change, dose: 250.0 mg/kg/injection, schedule: Q01DX001 (ip), vehicle: saline
[3] = endpoint: median tumor weight change, dose: 500.0 mg/kg/injection, schedule: Q01DX001 (ip), vehicle: saline
[4] = endpoint: median tumor weight change, dose: 1000.0 mg/kg/injection, schedule: Q01DX001 (ip), vehicle: saline
[5] = endpoint: median tumor weight change, dose: 2000.0 mg/kg/injection, schedule: Q01DX001 (ip), vehicle: saline
[6] = endpoint: median tumor weight (est.), dose: 25.0 mg/kg/injection, schedule: Q07DX005 (ip), vehicle: Klucel (hydroxypropylcellulose) (HPC)
[7] = endpoint: median tumor weight (est.), dose: 50.0 mg/kg/injection, schedule: Q07DX005 (ip), vehicle: Klucel (hydroxypropylcellulose) (HPC)
[8] = endpoint: median tumor weight (est.), dose: 100.0 mg/kg/injection, schedule: Q07DX005 (ip), vehicle: Klucel (hydroxypropylcellulose) (HPC)
[9] = endpoint: median tumor weight change, dose: 125.0 mg/kg/injection, schedule: Q01DX001 (ip), vehicle: saline with Tween-80
[10] = endpoint: median tumor weight change, dose: 250.0 mg/kg/injection, schedule: Q01DX001 (ip), vehicle: saline with Tween-80
[11] = endpoint: median tumor weight change, dose: 500.0 mg/kg/injection, schedule: Q01DX001 (ip), vehicle: saline with Tween-80
[12] = endpoint: median tumor weight change, dose: 62.5 mg/kg/injection, schedule: Q01DX001 (ip), vehicle: Klucel (hydroxypropylcellulose) (HPC)
[13] = endpoint: median tumor weight (est.), dose: 12.5 mg/kg/injection, schedule: Q07DX005 (ip), vehicle: Klucel (hydroxypropylcellulose) (HPC)
[14] = endpoint: median tumor weight (est.), dose: 200.0 mg/kg/injection, schedule: Q07DX005 (ip), vehicle: Klucel (hydroxypropylcellulose) (HPC)
[15] = endpoint: median tumor weight (est.), dose: 400.0 mg/kg/injection, schedule: Q07DX005 (ip), vehicle: Klucel (hydroxypropylcellulose) (HPC)
[16] = endpoint: median tumor weight change, dose: 100.0 mg/kg/injection, schedule: Q01DX001 (ip), vehicle: Klucel (hydroxypropylcellulose) (HPC)
[17] = endpoint: median tumor weight change, dose: 200.0 mg/kg/injection, schedule: Q01DX001 (ip), vehicle: Klucel (hydroxypropylcellulose) (HPC)
[18] = endpoint: median tumor weight change, dose: 125.0 mg/kg/injection, schedule: Q01DX001 (ip), vehicle: Klucel (hydroxypropylcellulose) (HPC)
[19] = endpoint: median tumor weight change, dose: 250.0 mg/kg/injection, schedule: Q01DX001 (ip), vehicle: Klucel (hydroxypropylcellulose) (HPC)

SMILES: CCN1/C(=C/C=C/C=C\C=C\c2sc3ccc4ccccc4c3[n+]2CC)Sc2ccc3ccccc3c21
- T/C (endpoint: median tumor weight change, dose: 25.0 mg/kg/injection, schedule: Q01DX001 (ip), vehicle: saline with Tween-80): 70 % of control and 76 % of control
- T/C (endpoint: median tumor weight change, dose: 100.0 mg/kg/injection, schedule: Q01DX001 (ip), vehicle: saline with Tween-80): 32 % of control and 53 % of control
- T/C (endpoint: median tumor weight change, dose: 200.0 mg/kg/injection, schedule: Q01DX001 (ip), vehicle: saline with Tween-80): 69 % of control

SMILES: O=C(O)C1CC(O)CN1 (centres undefined)
- T/C [1]: 71 % of control
- T/C [2]: 64 % of control and 78 % of control
- T/C [3]: 59 % of control and 69 % of control
- T/C [4]: 66 % of control and 70 % of control
- T/C [5]: 13 % of control and 15 % of control

SMILES: COC1C=CC23c4cc5c(cc4C(O)OC2CN(C)C3C1)OCO5 (centres undefined)
- T/C (endpoint: median tumor weight (est.), dose: 18.75 mg/kg/injection, schedule: Q07DX005 (ip), vehicle: saline): 154 % of control
- T/C (endpoint: median tumor weight (est.), dose: 37.5 mg/kg/injection, schedule: Q07DX005 (ip), vehicle: saline): 205 % of control
- T/C (endpoint: median tumor weight (est.), dose: 75.0 mg/kg/injection, schedule: Q07DX005 (ip), vehicle: saline): 88 % of control
- T/C (endpoint: median tumor weight (est.), dose: 150.0 mg/kg/injection, schedule: Q07DX005 (ip), vehicle: saline): 120 % of control

SMILES: Nc1ncnc2nc[nH]c12
- T/C (endpoint: median tumor weight (est.), dose: 64.0 mg/kg/injection, schedule: Q07DX005 (ip), vehicle: Klucel (hydroxypropylcellulose) (HPC)): 75 % of control and 77 % of control and 78 % of control
- T/C (endpoint: median tumor weight (est.), dose: 512.0 mg/kg/injection, schedule: Q07DX005 (ip), vehicle: Klucel (hydroxypropylcellulose) (HPC)): 17 % of control and 31 % of control

SMILES: CCC1OCC(C(Cl)CCl)O1 (centres undefined)
- T/C [6]: 93 % of control
- T/C [7]: 109 % of control
- T/C [8]: 74 % of control

SMILES: O=C1c2ccccc2C(=O)c2c3c(cc(NCCNCCO)c21)N(CCO)CCN3
- T/C [9]: 97 % of control
- T/C [10]: 91 % of control
- T/C [11]: 77 % of control

SMILES: COc1ccc2c(c1)C(O)(CN)CCCCC(OC)CCCC2 (centres undefined)
- T/C [12]: 121 % of control

SMILES: CCCCCC(=O)O[C@]1(C(C)=O)CC[C@H]2[C@@H]3CCC4=CC(=O)CC[C@]4(C)[C@H]3CC[C@@]21C
- T/C [13]: 95 % of control
- T/C [6]: 90 % of control
- T/C [7]: 101 % of control
- T/C [8]: 92 % of control
- T/C [14]: 49 % of control
- T/C [15]: 77 % of control

SMILES: C[C@]12CCC(=O)C=C1CC[C@@H]1[C@@H]2[C@@H](O)C[C@@]2(C)[C@H]1CC[C@]2(O)C(=O)CO
- T/C [7]: 76 % of control
- T/C [8]: 95 % of control
- T/C [14]: 60 % of control
- T/C [15]: 29 % of control
- T/C (endpoint: median tumor weight (est.), dose: 800.0 mg/kg/injection, schedule: Q07DX005 (ip), vehicle: Klucel (hydroxypropylcellulose) (HPC)): 21 % of control
- T/C [16]: 101 % of control
- T/C [17]: 99 % of control
- T/C (endpoint: median tumor weight change, dose: 400.0 mg/kg/injection, schedule: Q01DX001 (ip), vehicle: Klucel (hydroxypropylcellulose) (HPC)): 110 % of control
- T/C (endpoint: median tumor weight change, dose: 800.0 mg/kg/injection, schedule: Q01DX001 (ip), vehicle: Klucel (hydroxypropylcellulose) (HPC)): 57 % of control

SMILES: CCCCCNc1ncnc2c(C)[nH]nc12
- T/C [12]: 101 % of control
- T/C [18]: 89 % of control
- T/C [19]: 71 % of control

SMILES: O=C(CCBr)N1CCN(C(=O)CCBr)CC1
- T/C (endpoint: median tumor weight (est.), dose: 10.0 mg/kg/injection, schedule: Q07DX005 (ip), vehicle: Klucel (hydroxypropylcellulose) (HPC)): 94 % of control
- T/C (endpoint: median tumor weight (est.), dose: 20.0 mg/kg/injection, schedule: Q07DX005 (ip), vehicle: Klucel (hydroxypropylcellulose) (HPC)): 53 % of control
- T/C (endpoint: median tumor weight (est.), dose: 40.0 mg/kg/injection, schedule: Q07DX005 (ip), vehicle: Klucel (hydroxypropylcellulose) (HPC)): 67 % of control
- T/C (endpoint: median tumor weight (est.), dose: 80.0 mg/kg/injection, schedule: Q07DX005 (ip), vehicle: Klucel (hydroxypropylcellulose) (HPC)): 42 % of control
- T/C (endpoint: median tumor weight (est.), dose: 160.0 mg/kg/injection, schedule: Q07DX005 (ip), vehicle: Klucel (hydroxypropylcellulose) (HPC)): 19 % of control
- T/C (endpoint: median tumor weight (est.), dose: 320.0 mg/kg/injection, schedule: Q07DX005 (ip), vehicle: Klucel (hydroxypropylcellulose) (HPC)): 6 % of control

SMILES: Nc1nc2nc[nH]c2c(=O)[nH]1
- T/C (endpoint: median tumor weight (est.), dose: 25.0 mg/kg/injection, schedule: Q07DX005 (ip), vehicle: suspension in saline): 73 % of control
- T/C (endpoint: median tumor weight (est.), dose: 50.0 mg/kg/injection, schedule: Q07DX005 (ip), vehicle: suspension in saline): 73 % of control
- T/C (endpoint: median tumor weight (est.), dose: 100.0 mg/kg/injection, schedule: Q07DX005 (ip), vehicle: suspension in saline): 69 % of control
- T/C (endpoint: median tumor weight (est.), dose: 200.0 mg/kg/injection, schedule: Q07DX005 (ip), vehicle: suspension in saline): 73 % of control

SMILES: Cc1ccc(C(=O)[O][Hg][CH2]C2COC([CH2][Hg][O]C(=O)c3ccc(C)cc3)CO2)cc1 (centres undefined)
- T/C (endpoint: median tumor weight (est.), dose: 6.25 mg/kg/injection, schedule: Q07DX005 (ip), vehicle: Klucel (hydroxypropylcellulose) (HPC)): 60 % of control
- T/C [13]: 72 % of control
- T/C [6]: 117 % of control
- T/C [7]: 57 % of control
- T/C [8]: 162 % of control

SMILES: Nc1n[nH]c(N)n1
- T/C (endpoint: mean tumor weight, dose: 25.0 mg/kg/injection, schedule: Q01DX009 (ip), vehicle: saline): 153 % of control
- T/C (endpoint: mean tumor weight, dose: 100.0 mg/kg/injection, schedule: Q01DX009 (ip), vehicle: saline): 207 % of control
- T/C (endpoint: median tumor weight (est.), dose: 100.0 mg/kg/injection, schedule: Q07DX005 (ip), vehicle: saline): 50 % of control and 67 % of control
- T/C (endpoint: median tumor weight (est.), dose: 200.0 mg/kg/injection, schedule: Q07DX005 (ip), vehicle: saline): 58 % of control and 68 % of control
- T/C (endpoint: median tumor weight (est.), dose: 1600.0 mg/kg/injection, schedule: Q07DX005 (ip), vehicle: saline): 27 % of control and 51 % of control
- T/C [2]: 75 % of control
- T/C [3]: 121 % of control
- T/C [4]: 120 % of control
- T/C [5]: 174 % of control

SMILES: O=C1SC(c2ccccc2)=S=C1c1ccccc1
- T/C [9]: 67 % of control
- T/C [10]: 100 % of control
- T/C [11]: 60 % of control
- T/C (endpoint: median tumor weight change, dose: 1000.0 mg/kg/injection, schedule: Q01DX001 (ip), vehicle: saline with Tween-80): 56 % of control

SMILES: NC(CCC(=O)NC(CS)C(=O)NCC(=O)O)C(=O)O (centres undefined)
- T/C [1]: 74 % of control
- T/C [3]: 82 % of control

SMILES: [N-]=[N+]=CC(=O)CCC(=O)C=[N+]=[N-]
- T/C (endpoint: median tumor weight (est.), dose: 6.25 mg/kg/injection, schedule: Q07DX005 (ip), vehicle: DMSO): 65 % of control
- T/C (endpoint: median tumor weight (est.), dose: 12.5 mg/kg/injection, schedule: Q07DX005 (ip), vehicle: DMSO): 73 % of control
- T/C (endpoint: median tumor weight (est.), dose: 25.0 mg/kg/injection, schedule: Q07DX005 (ip), vehicle: DMSO): 78 % of control
- T/C (endpoint: median tumor weight (est.), dose: 50.0 mg/kg/injection, schedule: Q07DX005 (ip), vehicle: DMSO): 38 % of control
- T/C (endpoint: median tumor weight (est.), dose: 100.0 mg/kg/injection, schedule: Q07DX005 (ip), vehicle: DMSO): 47 % of control

SMILES: O=C1NCCN1c1ncc([N+](=O)[O-])s1
- T/C (endpoint: mean tumor weight, dose: 100.0 mg/kg/injection, schedule: Q07DX005 (ip), vehicle: saline): 121 % of control
- T/C (endpoint: mean tumor weight, dose: 200.0 mg/kg/injection, schedule: Q07DX005 (ip), vehicle: saline): 89 % of control
- T/C (endpoint: mean tumor weight, dose: 400.0 mg/kg/injection, schedule: Q07DX005 (ip), vehicle: saline): 101 % of control

SMILES: CCCCNc1ccc2nnc(C)n2n1
- T/C (endpoint: median tumor weight change, dose: 62.5 mg/kg/injection, schedule: Q01DX001 (ip), vehicle: DMSO): 111 % of control
- T/C (endpoint: median tumor weight change, dose: 125.0 mg/kg/injection, schedule: Q01DX001 (ip), vehicle: DMSO): 118 % of control

SMILES: COC1=CC(=O)N(C(=O)C2CSC(C(CO)NC(=O)c3csc(/C=N/O)n3)=N2)C1 (centres undefined)
- T/C [8]: 83 % of control
- T/C [14]: 102 % of control
- T/C [15]: 100 % of control

SMILES: CC[PH+](CC)CC[S-].CC[PH+](CC)CC[S-].[Au+].[Au+]
- T/C [16]: 29 % of control and 34 % of control
- T/C [17]: 24 % of control

SMILES: Clc1ccc(C(c2ccc(Cl)cc2)C(Cl)(Cl)Cl)cc1
- T/C (endpoint: median tumor weight change, dose: 31.25 mg/kg/injection, schedule: Q01DX001 (ip), vehicle: Klucel (hydroxypropylcellulose) (HPC)): 106 % of control
- T/C [12]: 84 % of control
- T/C [18]: 123 % of control
- T/C [19]: 80 % of control
- T/C (endpoint: median tumor weight change, dose: 500.0 mg/kg/injection, schedule: Q01DX001 (ip), vehicle: Klucel (hydroxypropylcellulose) (HPC)): 59 % of control
